Measured values from PubChem BioAssay (NCI).
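Cells were grown in 96-well plates and exposed to each compound for 48 hours at five concentrations; endpoints were interpolated linearly between bracketing concentrations, or set to the highest concentration if not reached. TGI: concentration producing complete growth inhibition.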

What was measured:
Assay in all cases: NCI anticancer screen, dose series, 48 h
[1] = tested on: SF-268 CNS
[2] = tested on: OVCAR-5 ovarian
[3] = tested on: LXFL 529 NSCLC
[4] = tested on: DLD-1 colon
[5] = tested on: SN12C renal
[6] = tested on: CCRF-CEM leukemia
[7] = tested on: HT29 colon
[8] = tested on: NCI-H23 lung
[9] = tested on: RXF-631 renal
[10] = tested on: COLO 205 colon
[11] = tested on: HL-60(TB) leukemia
[12] = tested on: UACC-257 melanoma
[13] = tested on: DMS 273 small cell lung
[14] = tested on: A549 NSCLC
[15] = tested on: OVCAR-4 ovarian
[16] = tested on: RPMI-8226 leukemia
[17] = tested on: MALME-3M melanoma
[18] = tested on: HCT-15 colon
[19] = tested on: U251 CNS
[20] = tested on: SR leukemia
[21] = tested on: HCC-2998 colon
[22] = tested on: KM20L2 colon
[23] = tested on: NCI-H460 lung
[24] = tested on: SW-620 colon
[25] = tested on: RXF 393 renal
[26] = tested on: M19-MEL melanoma
[27] = tested on: HOP-92 NSCLC
[28] = tested on: CAKI-1 renal
[29] = tested on: TK-10 renal
[30] = tested on: NCI-H522 lung
[31] = tested on: SF-539 CNS
[32] = tested on: SK-MEL-28 melanoma
[33] = tested on: NCI-H226 lung
[34] = tested on: M14 melanoma
[35] = tested on: SF-295 CNS
[36] = tested on: MOLT-4 leukemia
[37] = tested on: 786-0 renal
[38] = tested on: K-562 leukemia
[39] = tested on: KM12 colon
[40] = tested on: OVCAR-8 ovarian
[41] = tested on: ACHN renal
[42] = tested on: EKVX NSCLC
[43] = tested on: OVCAR-3 ovarian
[44] = tested on: SK-MEL-2 melanoma
[45] = tested on: HCT-116 colon
[46] = tested on: LOX IMVI melanoma
[47] = tested on: SNB-75 CNS
[48] = tested on: IGROV1 ovarian
[49] = tested on: DMS 114 small cell lung
[50] = tested on: HOP-18 NSCLC
[51] = tested on: SK-MEL-5 melanoma
[52] = tested on: SNB-78 CNS
[53] = tested on: SK-OV-3 ovarian
[54] = tested on: UACC-62 melanoma
[55] = tested on: HOP-62 NSCLC
[56] = tested on: A498 renal
[57] = tested on: UO-31 renal
[58] = tested on: SNB-19 CNS
[59] = tested on: XF 498 CNS

In the case of NC(=O)CCC(Nc1c2ccccc2nc2ccccc12)C(=O)O (stereo unspecified), the TGI [1] is reported as greater than 100 µM, the TGI [2] is reported as greater than 100 µM and the TGI [3] is reported as greater than 100 µM. The TGI [4] was greater than 100 µM, the TGI [5] was greater than 100 µM and the TGI [6] was greater than 100 µM. For the same compound, the TGI [7] was greater than 100 µM, the TGI [8] was greater than 100 µM and the TGI [9] was greater than 100 µM. It also gave a TGI [10] greater than 100 µM, a TGI [11] greater than 100 µM and a TGI [12] greater than 100 µM. The TGI [13] was greater than 100 µM, the TGI [14] was greater than 100 µM and the TGI [15] was 80.8 µM. For the same compound, the TGI [16] was greater than 100 µM, the TGI [17] was greater than 100 µM and the TGI [18] was greater than 100 µM. For the same compound, the TGI [19] was greater than 100 µM, the TGI [20] was greater than 100 µM and the TGI [21] was greater than 100 µM. For the same compound, the TGI [22] was greater than 100 µM, the TGI [23] was greater than 100 µM and the TGI [24] was greater than 100 µM. It also gave a TGI [25] greater than 100 µM, a TGI [26] greater than 100 µM and a TGI [27] greater than 100 µM. It also gave a TGI [28] greater than 100 µM, a TGI [29] greater than 100 µM and a TGI [30] greater than 100 µM. For the same compound, the TGI [31] was greater than 100 µM, the TGI [32] was greater than 100 µM and the TGI [33] was greater than 100 µM. For the same compound, the TGI [34] was greater than 100 µM, the TGI [35] was greater than 100 µM and the TGI [36] was greater than 100 µM. It also gave a TGI [37] greater than 100 µM, a TGI [38] greater than 100 µM and a TGI [39] greater than 100 µM. The TGI [40] was greater than 100 µM, the TGI [41] was greater than 100 µM and the TGI [42] was greater than 100 µM. For the same compound, the TGI [43] was greater than 100 µM, the TGI [44] was greater than 100 µM and the TGI [45] was greater than 100 µM. The TGI [46] was greater than 100 µM and the TGI [47] was greater than 100 µM.
In the case of CN(C)CCNC(=O)c1cccc2nc3cc(Cl)ccc3nc12, the TGI [2] is reported as 7.62 µM, the TGI [3] is reported as greater than 22.3 µM and the TGI [4] is reported as 20.3 µM. The TGI [5] was 10.7 µM, the TGI [48] was greater than 50.6 µM and the TGI [7] was 6.22 µM. The TGI [8] was 5.26 µM, the TGI [11] was 13.9 µM and the TGI [12] was 8.69 µM. It also gave a TGI [13] greater than 100 µM, a TGI [49] of 6.69 µM and a TGI [14] greater than 26.7 µM. It also gave a TGI [15] of 8.54 µM, a TGI [16] of 31.6 µM and a TGI [17] of 4.8 µM. For the same compound, the TGI [18] was 11.5 µM, the TGI [19] was 12.4 µM and the TGI [50] was greater than 63.2 µM. It also gave a TGI [20] greater than 100 µM, a TGI [21] of 10.7 µM and a TGI [22] of 9.08 µM. For the same compound, the TGI [24] was greater than 23.7 µM, the TGI [51] was greater than 33.6 µM and the TGI [25] was 6.31 µM. The TGI [26] was 3.89 µM, the TGI [27] was greater than 23.8 µM and the TGI [28] was greater than 23.5 µM. For the same compound, the TGI [29] was 15 µM, the TGI [52] was 10.5 µM and the TGI [30] was greater than 100 µM. The TGI [53] was greater than 40.3 µM, the TGI [54] was 9.67 µM and the TGI [31] was 11.4 µM. The TGI [32] was 8.27 µM, the TGI [55] was 5.61 µM and the TGI [33] was 5.14 µM. It also gave a TGI [34] greater than 21.9 µM, a TGI [35] greater than 27.8 µM and a TGI [36] of 2.77 µM. For the same compound, the TGI [37] was greater than 31 µM, the TGI [38] was 4.14 µM and the TGI [39] was 15.2 µM. It also gave a TGI [40] greater than 21.3 µM, a TGI [41] of 4.22 µM and a TGI [42] of 18.1 µM. For the same compound, the TGI [43] was 6.15 µM, the TGI [56] was 4.65 µM and the TGI [44] was 7.57 µM. It also gave a TGI [45] of 2.23 µM, a TGI [57] greater than 29.1 µM and a TGI [46] of 2.86 µM. The TGI [47] was 15.4 µM and the TGI [58] was 16.9 µM.
Work on C=C(C#N)C1OCC2OC(C)(C)OC21 (stereo unspecified) yielded a TGI [1] of 52.5 µM, a TGI [2] of 33.9 µM and a TGI [4] of 34.4 µM. For the same compound, the TGI [5] was 38.2 µM, the TGI [48] was greater than 100 µM and the TGI [6] was 48.8 µM. It also gave a TGI [7] greater than 100 µM, a TGI [8] of 34.8 µM and a TGI [9] of 35.8 µM. The TGI [10] was 30.3 µM, the TGI [11] was 43 µM and the TGI [12] was 30 µM. The TGI [13] was 43.1 µM, the TGI [49] was 57.2 µM and the TGI [14] was greater than 100 µM. For the same compound, the TGI [15] was 33.6 µM, the TGI [18] was 35.3 µM and the TGI [19] was greater than 100 µM. It also gave a TGI [50] of 81.7 µM, a TGI [21] of 83.6 µM and a TGI [23] of 57.4 µM. It also gave a TGI [24] of 39.6 µM, a TGI [51] of 34 µM and a TGI [25] of 31.3 µM. For the same compound, the TGI [26] was 61.8 µM, the TGI [27] was 43.3 µM and the TGI [28] was 49.1 µM. For the same compound, the TGI [29] was 58.5 µM, the TGI [52] was 43 µM and the TGI [53] was greater than 100 µM. For the same compound, the TGI [54] was 31.9 µM, the TGI [31] was 30 µM and the TGI [32] was 43.2 µM. It also gave a TGI [55] greater than 100 µM, a TGI [34] of 30.5 µM and a TGI [35] greater than 100 µM. It also gave a TGI [36] of 43.3 µM, a TGI [37] of 39.4 µM and a TGI [38] of 72 µM. The TGI [39] was greater than 100 µM, the TGI [40] was 48.7 µM and the TGI [41] was 42.4 µM. It also gave a TGI [42] of 60 µM, a TGI [43] of 46 µM and a TGI [56] of 51.2 µM. The TGI [44] was 77.2 µM, the TGI [45] was 38.4 µM and the TGI [57] was greater than 100 µM. For the same compound, the TGI [46] was 30.4 µM, the TGI [47] was 35.9 µM and the TGI [58] was greater than 100 µM.
COC(=O)C1=C(O)c2cc(-c3ccccc3)c(-c3ccccc3)c(C#N)c2NC(=O)C1 was tested, and the TGI [3] was greater than 100 µM, the TGI [4] was greater than 100 µM and the TGI [5] was greater than 100 µM. The TGI [48] was 4.74 µM, the TGI [6] was greater than 100 µM and the TGI [7] was greater than 100 µM. The TGI [8] was greater than 100 µM, the TGI [9] was 41 µM and the TGI [10] was greater than 100 µM. It also gave a TGI [12] greater than 100 µM, a TGI [13] greater than 100 µM and a TGI [49] greater than 100 µM. It also gave a TGI [14] of 54.4 µM, a TGI [15] greater than 100 µM and a TGI [18] greater than 100 µM. It also gave a TGI [19] greater than 100 µM, a TGI [20] greater than 100 µM and a TGI [21] greater than 100 µM. It also gave a TGI [22] greater than 100 µM, a TGI [23] greater than 100 µM and a TGI [25] of 9.33 µM. For the same compound, the TGI [26] was greater than 100 µM, the TGI [28] was 85.8 µM and the TGI [52] was greater than 100 µM. It also gave a TGI [59] greater than 100 µM, a TGI [54] greater than 100 µM and a TGI [31] greater than 100 µM. For the same compound, the TGI [32] was greater than 100 µM, the TGI [55] was 96.8 µM and the TGI [34] was greater than 100 µM. It also gave a TGI [35] of 42.1 µM, a TGI [36] greater than 100 µM and a TGI [37] greater than 100 µM. For the same compound, the TGI [38] was greater than 100 µM, the TGI [39] was greater than 100 µM and the TGI [40] was greater than 100 µM. It also gave a TGI [41] greater than 100 µM, a TGI [42] greater than 100 µM and a TGI [43] greater than 100 µM. For the same compound, the TGI [56] was greater than 100 µM, the TGI [44] was greater than 100 µM and the TGI [45] was greater than 100 µM. For the same compound, the TGI [57] was greater than 100 µM, the TGI [47] was 93.3 µM and the TGI [58] was greater than 100 µM.
